We go through 5 cell lines from the supplement of paper PMC10307832.

Assay in all cases: relative viability (nuclei count vs DMSO), 5 days (fraction); higher = more cells survive
Compound in assay [1]: CC(C)=CC[C@@H](O)C1=CC(=O)c2c(O)ccc(O)c2C1=O [Shikonin] + O=C(c1cc(Cc2n[nH]c(=O)c3ccccc23)ccc1F)N1CCN(C(=O)C2CC2)CC1 [Olaparib] (partner 8 µM)
In a few lines:
(§1)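 Five library-drug doses in √10 steps were combined with a fixed anchor-drug dose, or a single drug was given alone, by pin tool to lung cancer cell lines in 1536-well plates the day after seeding. Nuclei were stained and counted after 5 days. Relative viability is the nuclei count in treated wells over that in vehicle wells, taken as the median of duplicate plates.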

Compound in assay [2]: CC(C)=CC[C@@H](O)C1=CC(=O)c2c(O)ccc(O)c2C1=O [Shikonin] + CCNC(=O)c1noc(-c2cc(C(C)C)c(O)cc2O)c1-c1ccc(CN2CCOCC2)cc1 [Luminespib] (partner 0.01 µM)
In a few lines: as §1

Compound in assay [3]: CC(C)N(CCCNC(=O)Nc1ccc(C(C)(C)C)cc1)C[C@H]1O[C@@H](n2ccc3c(N)ncnc32)[C@H](O)[C@@H]1O + C[C@]1(O)C[C@@H](c2nc(-c3ccc4ccc(-c5ccccc5)nc4c3)c3c(N)nccn32)C1 [Linsitinib] (partner 1 µM)
In a few lines: as §1

Compound in assay [4]: CC(C)N(CCCNC(=O)Nc1ccc(C(C)(C)C)cc1)C[C@H]1O[C@@H](n2ccc3c(N)ncnc32)[C@H](O)[C@@H]1O + Nc1ncn([C@H]2C[C@H](O)[C@@H](CO)O2)c(=O)n1 [Decitabine] (partner 2 µM)
In a few lines:
as §1

As to NCI-H2126, the relative viability in assay [1] (first compound 0.01 µM) was 0.953; in assay [1] (first compound 0.1 µM) it was 1.14; in assay [1] (first compound 0.3162 µM) it was 0.943; in assay [1] (first compound 1 µM), 0.92; in assay [2] (first compound 0.01 µM), 1.01; in assay [2] (first compound 0.1 µM) it was 1.05. Also, the relative viability in assay [2] (first compound 0.3162 µM) stood at 0.966; in assay [2] (first compound 1 µM), 0.891; in assay [3] (first compound 0.08 µM) it was 0.713; in assay [3] (first compound 0.253 µM), 0.674; in assay [3] (first compound 0.8 µM) it was 0.743; in assay [3] (first compound 2.53 µM), 0.749. Also, the relative viability in assay [3] (first compound 8 µM) was 0.676; in assay [4] (first compound 0.08 µM) it was 0.568; in assay [4] (first compound 0.253 µM) it was 0.591; in assay [4] (first compound 0.8 µM), 0.557; in assay [4] (first compound 2.53 µM) it was 0.551; in assay [4] (first compound 8 µM), 0.508.
As to NCI-H2347, the relative viability in assay [1] (first compound 0.01 µM) was 0.55; in assay [1] (first compound 0.1 µM), 0.619; in assay [1] (first compound 0.3162 µM), 0.451; in assay [1] (first compound 1 µM), 0.551; in assay [2] (first compound 0.01 µM), 0.573; in assay [2] (first compound 0.1 µM) it was 0.477. The relative viability in assay [2] (first compound 0.3162 µM) was found to be 0.471; in assay [2] (first compound 1 µM), 0.526; in assay [3] (first compound 0.08 µM), 1; in assay [3] (first compound 0.253 µM) it was 0.95; in assay [3] (first compound 0.8 µM) it was 0.868; in assay [3] (first compound 2.53 µM) it was 1.02. Further, the relative viability in assay [3] (first compound 8 µM) was found to be 0.97; in assay [4] (first compound 0.08 µM), 0.529; in assay [4] (first compound 0.253 µM), 0.688; in assay [4] (first compound 0.8 µM) it was 0.616; in assay [4] (first compound 2.53 µM) it was 0.664; in assay [4] (first compound 8 µM), 0.432.
With NCI-H2405, the relative viability in assay [1] (first compound 0.01 µM) is 0.918; in assay [1] (first compound 0.1 µM), 0.952; in assay [1] (first compound 0.3162 µM), 0.892; in assay [1] (first compound 1 µM) it was 0.868; in assay [2] (first compound 0.01 µM), 0.698; in assay [2] (first compound 0.1 µM), 0.745. Moreover, the relative viability worked out at 0.665 in assay [2] (first compound 0.3162 µM); 0.644 in assay [2] (first compound 1 µM); 0.901 in assay [3] (first compound 0.08 µM); 0.919 in assay [3] (first compound 0.8 µM); 0.966 in assay [3] (first compound 2.53 µM); 0.945 in assay [3] (first compound 8 µM). In addition, the relative viability was 0.723 in assay [4] (first compound 0.08 µM); 0.748 in assay [4] (first compound 0.253 µM); 0.741 in assay [4] (first compound 0.8 µM); 0.745 in assay [4] (first compound 2.53 µM); 0.708 in assay [4] (first compound 8 µM).
Regarding NCI-H3122, the relative viability in assay [1] (first compound 0.01 µM) worked out at 0.655; in assay [1] (first compound 0.1 µM), 0.631; in assay [1] (first compound 0.3162 µM) it was 0.621; in assay [1] (first compound 1 µM), 0.679; in assay [2] (first compound 0.01 µM) it was 0.0973; in assay [2] (first compound 0.1 µM) it was 0.0926. Also, the relative viability in assay [2] (first compound 0.3162 µM) was 0.0903; in assay [2] (first compound 1 µM) it was 0.0968; in assay [3] (first compound 0.08 µM) it was 1.03; in assay [3] (first compound 0.253 µM), 0.989; in assay [3] (first compound 0.8 µM), 0.919; in assay [3] (first compound 2.53 µM) it was 1.01. For the same cell line, the relative viability worked out at 0.938 in assay [3] (first compound 8 µM); 0.445 in assay [4] (first compound 0.08 µM); 0.467 in assay [4] (first compound 0.253 µM); 0.462 in assay [4] (first compound 0.8 µM); 0.409 in assay [4] (first compound 2.53 µM); 0.481 in assay [4] (first compound 8 µM).
With PC-3 [JPC-3], the relative viability in assay [1] (first compound 0.01 µM) is 1.08; in assay [1] (first compound 0.1 µM), 1.16; in assay [1] (first compound 0.3162 µM) it was 1.33; in assay [1] (first compound 1 µM), 1.27; in assay [2] (first compound 0.01 µM), 0.727; in assay [2] (first compound 0.1 µM), 0.677. For the same cell line, the relative viability turned out to be 0.665 in assay [2] (first compound 0.3162 µM); 0.622 in assay [2] (first compound 1 µM); 0.97 in assay [3] (first compound 0.08 µM); 0.94 in assay [3] (first compound 0.253 µM); 0.876 in assay [3] (first compound 0.8 µM); 0.919 in assay [3] (first compound 2.53 µM). Further, the relative viability in assay [3] (first compound 8 µM) amounted to 0.897; in assay [4] (first compound 0.08 µM), 0.766; in assay [4] (first compound 0.253 µM) it was 0.726; in assay [4] (first compound 2.53 µM), 0.799; in assay [4] (first compound 8 µM), 0.864.
